Measurements as given in ChEMBL document CHEMBL1148316, “Discovery of 5-(4-chlorophenyl)-1-(2,4-dichlorophenyl)-3-hexyl-1h-1,2,4-triazole, a novel in vivo cannabinoid antagonist containing a 1,2,4-triazole motif” (J Med Chem, 2004).
Active and inactive are the calls of the source. The calls are words filed in the database; no cut-off is given here.

How the values were obtained:
Assay type in all cases: functional
Cavia porcellus = species: Cavia porcellus; test: Effect on electrically evoked contractions in […] plexus longitudinal muscles of guinea pig at 10E-8 to 2.4E-6 M; No effect; details: Muscle tissue
Mus musculus = species: Mus musculus; test: Effect on electrically evoked contractions in mouse vas deferens at 10E-8 to 10E-6 M concentration; No effect
[1] = Effect on cannabinoid tetrad (nociception, temperature, spontaneous motility and catalepsy) of behavioral test; no significant effect
[2] = Effect on cannabinoid tetrad (nociception, temperature, spontaneous motility and catalepsy) of behavioral test; induce antinociception
[3] = Effect on cannabinoid tetrad (nociception, temperature, spontaneous motility and catalepsy) of behavioral test; induce catalepsy
[4] = Effect on cannabinoid tetrad (nociception, temperature, spontaneous motility and catalepsy) of behavioral test; induce hypothermia
[5] = Effect on cannabinoid tetrad (nociception, temperature, spontaneous motility and catalepsy) of behavioral test; inhibit spontaneous motility

Row | SMILES | Activity (Cavia porcellus) | Activity (Mus musculus) | other results
1 | CCCCCCc1nc(-c2ccc(Cl)cc2)n(-c2ccc(Cl)cc2Cl)n1 | inactive | inactive | Activity [1]: inactive
2 | CCCCCCc1nc(-c2ccc(Cl)cc2Cl)n(-c2ccc(Cl)cc2Cl)n1 | inactive | inactive | 
3 | Cc1c(C(=O)c2cccc3ccccc23)c2cccc3c2n1[C@H](CN1CCOCC1)CO3 |  |  | Activity [2]: Active; Activity [3]: Active; Activity [4]: Active; Activity [5]: Active
4 | CCCCCCCc1nc(-c2ccccc2)n(-c2ccccc2)n1 | inactive | inactive | 
5 | CCc1nc(-c2ccc(Cl)cc2)n(-c2ccc(Cl)cc2)n1 | inactive | inactive | 
6 | CCc1nc(-c2ccc(Cl)cc2)n(-c2ccccc2)n1 | inactive | inactive | 
7 | CCCCCCc1nc(-c2ccc(Cl)cc2)n(-c2ccc(Cl)cc2)n1 | inactive | inactive | 
